In patent publication US20250101448A1, “Protein, Gene and Their Vectors and Applications that Control Symbiotic Nitrogen Fixation Efficiency of Soybeans” (priority 2022, published 2025):

Legend:
[1] = system: GmNAS1 protein lacking any one CBS functional domain; assay: isothermal titration calorimetry, GmNAS1 protein lacking a CBS functional domain, binding to AMP; parameters: species or system soybean; details: ITC
Description: (§1) Utilize the prokaryotic expression system of Escherichia coli to express and purify GmNAS1 and GmNAP1 proteins; and then utilize isothermal titration calorimetry to detect the binding ability of GmNAS1/GmNAP1 to AMP, ADP, ATP and cAMP.

[2] = system: GmNFYC10a-GFP; assay: GmNFYC10a-GFP fluorescence localization in sections of mature root nodules; format: cell-based, soybean; details: nodule sections treated for 2 hours, 25 days after inoculation with Rhizobia
Description: This application also uses co-immunoprecipitation coupled mass spectrometry analysis technology to search for candidate proteins that bind to GmNAP1. In the mass spectrometry results, a transcription factor GmNFYC10a is discovered. […] In order to verify this speculation, we first obtains GmNFYC10a-GFP transgenic hairy roots, and carrying out vibration sectioning of mature root nodules 25 days after inoculation with Rhizobia. […] (FIG. 14).

[3] = system: interaction between GmNAS1 and GmNFYC10a; assay: pull-down of GmNAS1 and GmNFYC10a interaction; format: binding, soybean
[4] = system: GmNAP1 protein; assay: isothermal titration calorimetry, binding of GmNAP1 to AMP/ADP/ATP/cAMP; parameters: species or system soybean; details: ITC, GmNAP1 expressed in Escherichia coli and purified
Description: as §1

[5] = system: GmNAS1 protein; assay: isothermal titration calorimetry, binding of GmNAS1 to AMP/ADP/ATP/cAMP; parameters: species or system soybean; details: ITC
Description: as §1

[6] = system: soybean root nodule cells; assay: GmNFYC10a nuclear protein level and glycolysis gene expression in root nodules before and after sucrose treatment; format: in vivo; details: after sucrose treatment
[7] = system: soybean root nodules; assay: nodule nitrogenase activity after sucrose treatment of plants inoculated with USDA110; format: in vivo; details: wild-type W82, 3% (w/v) sucrose solution for three days
Method: Design editing site identification primers based on the target sequences of sgRNA on GmNAS1 and GmNAP1, amplify the corresponding fragments and send them for sequencing. The sequencing results are analyzed and four function loss mutants of cr-nas1, cr-nap1, cr-nas1nap1-1 and cr-nas1nap1-2 are obtained. The nodule number, nodule weight and nodule nitrogenase activity on the 25th day after the mutant plants are inoculated with Rhizobia USDA110 are measured.
By utilizing gene editing technology, we obtain the functional knockout mutant cr-nas1 of GmNAS1, the functional knockout mutant cr-nap1 of GmNAP1, and the double knockout mutants cr-nas1nap1-1 and cr-nas1nap1-2 of GmNAS1 and GmNAP1. The root nodules of these four soybean mutants are phenotypically determined 25 days after inoculation with USDA110.

Compound: Nc1ncnc2c1ncn2[C@@H]1O[C@H](COP(=O)(O)O)[C@@H](O)[C@H]1O [AMP]
- binding to GmNAS1 protein lacking any one CBS functional domain [1]: not capable of binding
- GmNFYC10a-GFP fluorescence in the nucleus [2]: increased significantly
- effect on interaction between GmNAS1 and GmNFYC10a [3]: significantly inhibit
- binding to GmNAP1 [4]: does not bind

Compound: Nc1ncnc2c1ncn2[C@@H]1O[C@H](COP(=O)(O)OP(=O)(O)OP(=O)(O)O)[C@@H](O)[C@H]1O [ATP]
- binding to GmNAS1 [5]: does not bind
- binding to GmNAP1 [4]: does not bind

Compound: CC[C@H]1/C=C/C=C/C[C@@H](C)[C@H](O)[C@@](C)(O)C(=O)[C@@H](C)[C@H](O)[C@@H](C)C(=O)[C@@H](C)[C@H](O)[C@@H](C)/C=C/C(=O)O[C@@H]2[C@H](C)[C@H](CC1)O[C@]1(CC[C@H](C)[C@H](C[C@@H](C)O)O1)[C@H]2C [oligomycin]
- GmNFYC10a-GFP fluorescence in the nucleus [2]: increased significantly

Compound: OC[C@H]1O[C@@](CO)(O[C@H]2O[C@H](CO)[C@@H](O)[C@H](O)[C@H]2O)[C@@H](O)[C@@H]1O [sucrose]
- protein content of GmNFYC10a in the nucleus ([6]; nuclei of soybean root nodule cells): decreases significantly
- expression of glycolysis-related genes ([6]; root nodules): significantly down-regulated
- nitrogenase activity of wild-type plants vs plants without sucrose [7]: significantly higher

Compound: Nc1ncnc2c1ncn2[C@@H]1O[C@H](COP(=O)(O)OP(=O)(O)O)[C@@H](O)[C@H]1O [ADP]
- binding to GmNAP1 [4]: does not bind
